Test [1] deals with T1, human SGLT2 (Homo sapiens, UniProt P31639).
T1 construct: expressed in transfected cells
T1 sequence (P31639 1-672): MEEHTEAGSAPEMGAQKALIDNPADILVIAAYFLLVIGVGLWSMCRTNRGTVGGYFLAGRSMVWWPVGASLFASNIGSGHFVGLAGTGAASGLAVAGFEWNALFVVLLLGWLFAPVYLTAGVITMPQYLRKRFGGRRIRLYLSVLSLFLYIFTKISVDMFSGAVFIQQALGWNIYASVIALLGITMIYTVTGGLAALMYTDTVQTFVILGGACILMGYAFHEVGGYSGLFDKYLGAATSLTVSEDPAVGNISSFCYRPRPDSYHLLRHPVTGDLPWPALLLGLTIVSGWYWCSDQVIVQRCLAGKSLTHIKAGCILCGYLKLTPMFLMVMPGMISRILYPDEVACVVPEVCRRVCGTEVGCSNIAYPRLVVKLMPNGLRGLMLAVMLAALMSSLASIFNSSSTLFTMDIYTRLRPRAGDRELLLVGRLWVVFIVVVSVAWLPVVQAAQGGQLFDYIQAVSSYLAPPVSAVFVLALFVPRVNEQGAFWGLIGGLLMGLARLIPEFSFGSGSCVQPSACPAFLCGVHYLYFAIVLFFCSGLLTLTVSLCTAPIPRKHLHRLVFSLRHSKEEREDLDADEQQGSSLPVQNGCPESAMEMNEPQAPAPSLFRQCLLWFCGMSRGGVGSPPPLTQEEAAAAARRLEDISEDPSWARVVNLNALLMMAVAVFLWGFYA
Nature of the test: SGLT2 assay: Na-dependent 14C-AMG uptake in CHO-K1 cells stably expressing human SGLT2. The class given is cell-based. To be noted: for IC50: average if tested more than once; for SGLT2 %-inhibition: @ 0.3 μM. The essentials:
(§1)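 Stable CHO-K1 lines were pretreated 24 h with 10 mM Na-butyrate, then compound (0.001–10 μM) for 10 min in Na+ buffer (137 mM NaCl, pH 7.4). Uptake of 14C-AMG (500 μM final, 0.07 μCi/well) over 2 h at 37° C measured by scintillation; %-inhibition or IC50.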

Test [2] concerns the target T2, human SGLT1 (Homo sapiens, UniProt P13866).
T2 construct: expressed in transfected cells
T2 sequence (P13866 1-664): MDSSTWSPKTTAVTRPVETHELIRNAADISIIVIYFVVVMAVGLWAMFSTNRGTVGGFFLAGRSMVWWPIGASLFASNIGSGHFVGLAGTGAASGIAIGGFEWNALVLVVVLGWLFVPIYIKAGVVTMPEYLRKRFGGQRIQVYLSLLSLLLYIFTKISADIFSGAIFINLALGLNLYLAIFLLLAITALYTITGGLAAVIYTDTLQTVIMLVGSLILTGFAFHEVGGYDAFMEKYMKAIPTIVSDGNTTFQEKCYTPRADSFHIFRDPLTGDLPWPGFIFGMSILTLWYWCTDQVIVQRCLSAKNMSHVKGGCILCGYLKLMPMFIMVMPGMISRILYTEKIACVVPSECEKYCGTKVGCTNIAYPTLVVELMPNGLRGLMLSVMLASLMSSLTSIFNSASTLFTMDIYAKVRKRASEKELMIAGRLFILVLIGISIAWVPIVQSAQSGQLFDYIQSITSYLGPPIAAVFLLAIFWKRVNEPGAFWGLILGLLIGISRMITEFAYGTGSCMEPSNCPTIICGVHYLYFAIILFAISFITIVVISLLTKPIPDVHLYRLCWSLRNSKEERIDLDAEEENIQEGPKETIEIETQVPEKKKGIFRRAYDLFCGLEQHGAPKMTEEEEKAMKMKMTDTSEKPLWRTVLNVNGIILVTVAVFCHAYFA
Nature of the test: SGLT1 assay: Na-dependent 14C-AMG uptake in CHO-K1 cells stably expressing human SGLT1. The class given is cell-based. Conditions: for IC50: average if tested more than once; for SGLT1 %-inhibition: @ 0.3 μM. In short, it runs like this:
as §1

Broadly, the IC50 is the concentration that inhibits the measured activity by half. A lower IC50 goes with greater potency. As to `[2H]C1([2H])Oc2ccc(Cc3cc([C@@H]4O[C@H](CO)[C@@H](F)[C@H](O)[C@H]4O)c(OC)c4c3OCC4)cc2OC1([2H])[2H]` [Compound 172, (2S,3R,4R,5S,6R)-5-fluoro-6-(hydroxymethyl)-2-[4-methoxy-7-[(2,2,3,3-tetradeuterio-1,4-benzodioxin-6-yl)methyl]-2,3-dihydrobenzofuran-5-yl]tetrahydropyran-3,4-diol], the values for the half-inhibitory concentration (IC50) in test [1] and in test [2] were 7 nM and 45 nM, respectively.

Regarding `[2H]C1([2H])Oc2ccc(Cc3cc([C@@H]4O[C@H](CO)[C@@H](F)[C@H](O)[C@H]4O)ccc3OC)cc2OC1([2H])[2H]` [Compound 173], the half-inhibitory concentration (IC50) in test [1] stood at 13 nM; in test [2], 190 nM.

For `[2H]C1([2H])Oc2ccc(Cc3cc([C@@H]4O[C@H](CO)[C@@H](F)[C@H](O)[C@H]4O)ccc3CC)cc2OC1([2H])[2H]` [Compound 175], the concentration for half-maximal inhibition (IC50) amounted to 12 nM in test [1] and 87 nM in test [2].

In test [1], `[2H]C([2H])(c1ccc2c(c1)OC([2H])([2H])C([2H])([2H])O2)c1cc([C@@H]2O[C@H](CO)[C@@H](F)[C@H](O)[C@H]2O)ccc1CC` [Compound 176] gave an SGLT2 %-inhibition of 56.1% @ 0.3 μM. This molecule also gave an SGLT1 %-inhibition in test [2] of 68.9% @ 0.3 μM.

On to `[2H]C1([2H])Oc2ccc(Cc3cc([C@@H]4O[C@H](CO)[C@@H](F)[C@H](O)[C@H]4O)c4c(c3CC)CCO4)cc2OC1([2H])[2H]` [Compound 179], for which the IC50 in test [1] is 15 nM; in test [2] it was 60 nM.

For the molecule `CCc1c(Cc2ccc3c(c2)OCCO3)cc([C@@H]2O[C@H](CO)[C@@H](F)[C@H](O)[C@H]2O)c2c1CCO2` [Compound 180], the IC50 is 25 nM in test [1] and 61 nM in test [2].

As for `[2H]C1([2H])Oc2ccc(Cc3cc([C@@H]4O[C@H](CO)[C@@H](F)[C@H](O)[C@H]4O)cc4c3CCO4)cc2OC1([2H])[2H]` [Compound 181], the SGLT2 %-inhibition in test [1] came out at 85.0% @ 0.3 μM. The same molecule had an SGLT1 %-inhibition in test [2] of 67.0% @ 0.3 μM.

Consider `[2H]C([2H])([2H])Oc1cc(CC)c(Cc2ccc3c(c2)OCCO3)cc1[C@@H]1O[C@H](CO)[C@@H](F)[C@H](O)[C@H]1O` [Compound 182], for which the 50% inhibitory concentration (IC50) came to 11 nM in test [1] and 138 nM in test [2].
